Literature values, collected in patent US7511156B2, “Analogs of Salinosporamide A” (President and Fellows of Harvard College, priority 2004, dated 2009).
Residues, ends and D or L forms follow the SMILES beside them. *: point of attachment. Cbz = O=C(OCc1ccccc1)*

System: PC12 cells
Conditions: Tsubuki et al. 1993

Compound: CC(C)C[C@@H](C=O)NC(=O)[C@H](CC(C)C)NC(=O)[C@H](CC(C)C)NC(=O)OCc1ccccc1 [benzyloxycarbonyl (Z)-Leu-Leu-leucinal] (Cbz-Leu-Leu-Leu-aldehyde)
- optimal concentration inducing neurite outgrowth: 30 nM
